The values that follow come from paper PMC8632880, “Mitochondrial proteome of mouse oocytes and cisplatin-induced shifts in protein profile” (Acta Pharmacologica Sinica, 2021).

Each structure is given as a SMILES string.

In this assay the target is T1, GST-HS90A (Mus musculus, UniProt P07901).
T1 construct: gene Hsp90aa1; mouse Hsp90aa1 coding region in pGEX-4T-1, N-terminal GST fusion (tag kept), expressed in E. coli, purified, RED-NHS labelled
Kind of assay: microscale thermophoresis, RED-NHS labelled protein. The format is binding. A general note: In MST a laser heats a spot of the sample, and binding alters the fluorescence response.

For orientation: Kd means the concentration at which binding is half-saturated. Low readings indicate higher affinity, high ones lower affinity. Turning to `[NH2][Pt]([NH2])([Cl])[Cl]` [cisplatin], the Kd worked out at 5.47 ± 0.2 µM.
